We go through nine compounds from paper PMC8306876, “A New N-Substituted 1H-Isoindole-1,3(2H)-Dione Derivative—Synthesis, Structure and Affinity for Cyclooxygenase Based on In Vitro Studies and Molecular Docking” (International Journal of Molecular Sciences, 2021).

Series [1] has as its system NHDF cells. The experiment in a line: DNA damage (chromatin relaxation, nucleus/halo diameter) after LPS preincubation. Conditions: ratio of cell nucleus diameter to halo diameter; 1 h with compound after 24 h with 50 µM LPS; (SD) n = 6. The class given is cell-based. The procedure: However, the cells were detached at the surface after 1h of incubation with the tested compound for evaluating DNA damage. The cells were then subjected to an analogous procedure as described in Grajzer et al..
(§1) The NO level was presented as concentration calculated using a standard curve (prepared in parallel with the conducted research). The ROS level was shown as ratio E/E0, where E0 is fluorescence with the positive control (cells incubated with 50 µM LPS) and E is a fluorescence with tested compound at 100 µM. Finally, the DNA damage was calculated as the ratio of cell nucleus diameter to halo diameter (a measure of DNA damage).
(§2) All statistical analysis performed were compared to the control—healthy cells (MTT assay), and positive control (incubated with 50 µM LPS) for DCF–DA, Griess, and DNA damaged. The data have a normal distribution and equality of variance, so ANOVA and post-hoc Scheffe methods were performed. The significance level was set at p < 0.05.

A further series concerns the target T1, COX-1 (Ovis aries, UniProt P05979).
T1 construct: purchased Cayman 701050
T1 sequence (P05979 25-600): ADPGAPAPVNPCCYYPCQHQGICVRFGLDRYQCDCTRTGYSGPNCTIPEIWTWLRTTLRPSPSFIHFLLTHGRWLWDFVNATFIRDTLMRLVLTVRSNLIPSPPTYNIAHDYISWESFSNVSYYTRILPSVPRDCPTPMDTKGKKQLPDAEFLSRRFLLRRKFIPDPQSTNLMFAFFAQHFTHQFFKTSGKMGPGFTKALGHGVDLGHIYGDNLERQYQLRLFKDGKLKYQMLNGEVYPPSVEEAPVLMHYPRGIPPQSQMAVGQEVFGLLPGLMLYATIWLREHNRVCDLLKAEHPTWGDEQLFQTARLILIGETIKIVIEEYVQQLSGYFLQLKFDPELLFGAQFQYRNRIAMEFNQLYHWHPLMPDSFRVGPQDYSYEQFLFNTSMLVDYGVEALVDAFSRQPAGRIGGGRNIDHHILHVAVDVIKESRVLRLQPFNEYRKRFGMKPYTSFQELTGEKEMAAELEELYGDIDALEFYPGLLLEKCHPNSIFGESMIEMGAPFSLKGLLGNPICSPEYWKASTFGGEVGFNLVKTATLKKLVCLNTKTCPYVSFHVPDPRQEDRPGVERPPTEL
The experiment in a line: Cyclooxygenase inhibition assay (Cayman kit No. 701050, COX peroxidase activity), COX-1. The format is biochemical. Conditions: incubation for 2 min; mean (SD); n = 3. The procedure: Cayman kit No. 701050 was used to evaluate the COX peroxidase activity of all compounds at a concentration of 100 µM. Absorbance was measured with a microplate reader at 590 nm. Concentrations at which 50% inhibition of enzyme activity occurred were calculated separately for COX-1 and COX-2 (IC50). Ratios of IC50 values (COX-2/COX-1) were also calculated

The target in another series is T2, COX-2 (Homo sapiens, UniProt P35354).
T2 construct: purchased Cayman 701050
T2 sequence (P35354 18-604): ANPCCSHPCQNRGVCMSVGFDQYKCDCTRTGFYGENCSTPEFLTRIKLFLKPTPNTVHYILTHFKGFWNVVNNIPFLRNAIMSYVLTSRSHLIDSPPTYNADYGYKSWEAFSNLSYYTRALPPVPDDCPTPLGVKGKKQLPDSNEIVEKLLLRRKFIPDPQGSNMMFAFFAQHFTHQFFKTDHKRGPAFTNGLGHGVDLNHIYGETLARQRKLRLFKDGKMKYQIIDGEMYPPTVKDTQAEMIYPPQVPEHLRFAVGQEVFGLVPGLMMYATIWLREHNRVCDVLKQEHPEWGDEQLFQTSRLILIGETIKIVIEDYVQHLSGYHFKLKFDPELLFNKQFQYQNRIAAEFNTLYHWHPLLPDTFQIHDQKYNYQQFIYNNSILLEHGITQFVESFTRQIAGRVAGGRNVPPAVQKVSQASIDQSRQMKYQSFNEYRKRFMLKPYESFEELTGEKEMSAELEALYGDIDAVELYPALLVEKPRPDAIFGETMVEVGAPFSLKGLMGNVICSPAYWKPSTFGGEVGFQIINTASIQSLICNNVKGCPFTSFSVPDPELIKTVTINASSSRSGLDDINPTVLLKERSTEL
The experiment in a line: Cyclooxygenase inhibition assay (Cayman kit No. 701050, COX peroxidase activity), COX-2. As to conditions: for IC50: incubation for 2 min, mean (SD), n = 3; for Ratio: COX-2/COX-1: ratio of IC50 values (COX-2/COX-1). The class given is biochemical. The procedure: Absorbance was measured with a microplate reader at 590 nm. […] Ratios of IC50 values (COX-2/COX-1) were also calculated

In series [2] the test system is NHDF cells. The series is described as follows: RNS (NO) level, Griess reagents after LPS preincubation. The format is cell-based. Conditions: 100 µM compound for 1 h after 24 h with 50 µM LPS; (SD) n = 6. Here is the method:
(§3) The ROS and RNS were evaluated using DCF–DA assay and Griess reagents, respectively. First, the cells were incubated with 50 µM LPS for 24 h to induce cell stress. Then, after the cells were washed, the 100 µM tested compounds were added for 1 h. Finally, the 50 µL supernatant was transferred to a new plate and added 50 µL of mixture A (1% sulfanilamide in 5% phosphoric acid) and B (0.1% N-(1-Naphthyl)ethylenediamine dihydrochloride) Griess reagents in a volume ratio 1:1 for 20 min in the dark. After that time, the absorbance was measured at 540 nm using a microplate reader. Simultaneously, the rest of the supernatant was removed from the above cell cultures, and 25 µM DCF–DA solution in MEM (without serum and phenol red) was added and left at 37 °C for 1 h and finally, determined fluorometrically with excitation at 485 nm and emission at 535 nm using a microplate reader.
as §1, §2
For orientation: Griess reagent forms a coloured azo dye with nitrite.

In series [3] the test system is NHDF cells. The series is described as follows: ROS level, DCF-DA assay after LPS preincubation. The class given is cell-based. As to conditions: 100 µM compound after LPS preincubation. Here is the method: as §3, §1, §2
Series [4] concerns NHDF cells. The series is described as follows: Cell viability, MTT assay. The format is cell-based. As to conditions: Homo sapiens, NHDF cell cultures, 24 h incubation, read-out: Cell Viability IC50 (µM) (SD). The procedure: The NHDF cells obtained from ATCC (Manasas, VA, USA) were incubated with DMEM without phenol red supplemented with 10% fetal bovine serum (FBS), 2 mM L-glutamine, 1.25 µg/mL amphotericin B and 100 µg/mL gentamicin at 37 °C in a humidified 5% CO2/95% air atmosphere incubator. The cell culture was examined under the microscope twice a week, and cells were passaged if confluence was greater than 70% or the medium was replaced with fresh medium.
The […] were prepared by dissolving compounds in DMSO and then stored at −20 °C for up to 6 months. Before the biological experimental, the working solution was dissolved in the medium in the concentration range of 10, 50, and 100 µM.
To evaluated cell viability, an MTT assay was performed. After incubation of cells with the tested compounds for 24 h, the supernatant was removed, and 1 mg/mL MTT solution was applied for 2 h. Next, the formazan was dissolved with propanol for 30 min, and absorbance was measured at 570 nm using a microplate reader. The results are presented as IC50.
On the technique in general: Formazan colour is commonly taken as a measure of viable cells.

Several values for one entry are separate records, joined by “and”; a condition that tells them apart may be missing. Equal entries are not always repeated. Marks after values point to notes of the source that are not given here.

The term melting point denotes the temperature of the solid-liquid transition. As usually defined, the IC50 is the concentration that inhibits the measured activity by half. On to `COc1ccccc1N1CCN(CN2C(=O)c3ccccc3C2=O)CC1` [B, N-[(4-(2-methoxyphenyl)-1-piperazinyl)methyl]-1H-isoindole-1,3(2H)-dione], for which the melting point was in the range of 134 to 135 °C. Further, the “DNA Damage” value in the series with NHDF cells [1] was 19.6 (0.09) *. Moreover, the IC50 on COX-1 stood at 71 µM. Besides, at COX-2, it took 68.5 µM to reach half-maximal inhibition (IC50); the “Ratio: COX-2/COX-1” value was 1.10 and 0.96.
Consider `O=C1c2ccccc2C(=O)N1CN1CCN(c2ccccc2)CC1` [A, N-[(4-phenyl-1-piperazinyl)methyl]-1H-isoindole-1,3(2H)-dione], for which the melting point is 160 to 161 °C. Besides, in the series with NHDF cells [1], the “DNA Damage” value was 15.2 (0.04) *. In addition, the “NO Level (pg/mL)” value in the series with NHDF cells [2] is recorded as 6.4 (0.14) pg/mL. This compound came in with an IC50 against COX-1 of 238 µM. On COX-2, the IC50 was determined as 107 µM and the “Ratio: COX-2/COX-1” value is listed as 0.45.
For the compound `COc1cccc(N2CCN(C(=O)CN3C(=O)c4ccccc4C3=O)CC2)c1` [Compound H, 2-{2-oxo-2-[4-(3-methoxy)-phenyl-1-piperazinyl]ethyl}-1H-isoindole-1,3(2H)-dione], the melting point is 155 to 156 °C. Besides, in the series with NHDF cells [1], the “DNA Damage” value is reported as 17.1 (0.04) *. In addition, in the series on NHDF cells [3], the “scavenging of ROS compared to control” value is recorded as “approximately 29.0%”. In addition, the IC50 in the series with NHDF cells [4] was determined as 94.1 µM. The compound further had an IC50 against COX-1 of 176 µM. Also, at COX-2, inhibition was half-maximal at 43.8 µM (IC50) and the “Ratio: COX-2/COX-1” value is 0.25.
Turning to `O=C(CN1C(=O)c2ccccc2C1=O)N1CCN(c2cccc(C(F)(F)F)c2)CC1` [F, 2-{2-oxo-2-[4-(3-trifluoromethyl)-phenyl-1-piperazinyl]ethyl}-1H-isoindole-1,3(2H)-dione], the melting point is 206 to 208 °C. Moreover, the “DNA Damage” value in the series with NHDF cells [1] is reported as 20.1 (0.03) *. Further, the “NO Level (pg/mL)” value in the series with NHDF cells [2] was 9.1 (0.07) pg/mL. Moreover, the IC50 against COX-1 came to 171 µM. For the same compound, on COX-2, half-maximal inhibition (IC50) was put at 47.6 µM and the “Ratio: COX-2/COX-1” value is 0.28.
Take `O=C1c2ccccc2C(=O)N1CN1CCN(c2cccc(C(F)(F)F)c2)CC1` [Compound C]: the melting point was in the range of 147 to 148 °C. Further, the “DNA Damage” value in the series on NHDF cells [1] was 23.2 (0.07) *. Moreover, the “NO Level (pg/mL)” value with NHDF cells [2] is recorded as 8.2 (0.03) * pg/mL. Moreover, on COX-1, it took 104 µM to reach half-maximal inhibition (IC50). Also, on COX-2, half-maximal inhibition (IC50) required 70.3 µM and the “Ratio: COX-2/COX-1” value stood at 0.67.
In turn, `O=C1c2ccccc2C(=O)N1CN1CCN(C(c2ccccc2)c2ccccc2)CC1` [Compound D, N-[(4-(diphenyl-methyl)-1-piperazinyl)methyl]-1H-isoindole-1,3(2H)-dione] came in with a melting point of 206 to 207 °C. The “DNA Damage” value with NHDF cells [1] is recorded as 17.3 (0.04) *. For the same compound, the “NO Level (pg/mL)” value in the series on NHDF cells [2] is listed as 7.4 (0.12) pg/mL. The IC50 in the series on NHDF cells [4] was 90.3 µM. It took 66.2 µM to reach half-maximal inhibition at COX-1 (IC50). In addition, on COX-2, half-maximal inhibition (IC50) required 72.8 µM and the “Ratio: COX-2/COX-1” value stood at 1.10.
Consider `COc1ccc(N2CCN(C(=O)CN3C(=O)c4ccccc4C3=O)CC2)cc1` [Compound I, 2-{2-oxo-2-[4-(4-methoxy)-phenyl-1-piperazinyl]ethyl}-1H-isoindole-1,3(2H)-dione], for which the melting point is 204 to 207 °C. The “DNA Damage” value in the series with NHDF cells [1] is given as 19.2 (0.08) *. Moreover, the “scavenging of ROS compared to control” value in the series on NHDF cells [3] is “approximately 29.0%”. For the same compound, the IC50 in the series on NHDF cells [4] was 93.3 µM. Inhibition at COX-1 was half-maximal at 94.4 µM (IC50). Further, at COX-2, half-maximal inhibition (IC50) required 46.2 µM and the “Ratio: COX-2/COX-1” value is 0.49.
`COc1ccccc1N1CCN(C(=O)CN2C(=O)c3ccccc3C2=O)CC1` [G, 2-{2-oxo-2-[4-(2-methoxy)-phenyl-1-piperazinyl]ethyl}-1H-isoindole-1,3(2H)-dione] gave a melting point of 152 to 154 °C. For the same compound, the “DNA Damage” value in the series on NHDF cells [1] was 18.7 (0.07) *. Moreover, the “scavenging of ROS compared to control” value in the series with NHDF cells [3] is given as “approximately 29.0%”. Moreover, the IC50 in the series with NHDF cells [4] was 96.8 µM. For the same compound, at COX-1, half-maximal inhibition (IC50) was put at 101 µM. Moreover, the IC50 at COX-2 was determined as 65.8 µM.
`O=C(CN1C(=O)c2ccccc2C1=O)N1CCN(c2ccccc2)CC1` [E, 2-[2-oxo-2-(4-phenyl-1-piperazinyl)ethyl]-1H-isoindole-1,3(2H)-dione] returned a melting point of 180 °C. Moreover, the “DNA Damage” value with NHDF cells [1] was 18.4 (0.07) *. Moreover, in the series on NHDF cells [2], the “NO Level (pg/mL)” value is reported as 5.3 (0.07) * pg/mL. Besides, at COX-1, half-maximal inhibition (IC50) was put at 76.7 µM. On COX-2, the IC50 came to 53.4 µM and the “Ratio: COX-2/COX-1” value is recorded as 0.70.
